Patent US5191079A, “Quinolinecarboxylic acid derivatives” (priority 1990, dated 1993)
≈ marks a conversion by molar mass, not a printed value. Where a name gives a salt, the structure may show the parent alone. Read-outs that look alike come from different tables or passages of the source.

Assays:
Format in all cases: cell-based
[1] = tested on: Acinetobacter calcoaceticus Ac 54; experiment: MIC, Experiment 1; settings: AC54, A. calcoaceticus Ac 54, Gram -, read-out: Min. inhib. concentr. (MIC)
Method in brief: (§1)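 MIC was determined by the Japan Society of Chemotherapy agar dilution method, working from 1000 μg/ml standard solutions (DMSO or water stocks). S. pneumoniae was precultured in brain heart infusion broth and tested on heart infusion agar with 5% defibrinated horse blood. Other strains used sensitivity test broth and sensitivity test agar.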

[2] = tested on: Bacillus subtilis ATCC 6633; experiment: MIC, Experiment 1; settings: ATCC6633, B. subtilis ATCC 6633, Gram +, read-out: Min. inhib. concentr. (MIC)
Method in brief: as §1

Enterobacter cloacae 963 = experiment: MIC, Experiment 1; settings: E. cloacae 963, Gram -, read-out: Min. inhib. concentr. (MIC)
Method in brief: as §1

[3] = tested on: Klebsiella pneumoniae PCI-602; experiment: MIC, Experiment 1; settings: PCI602, K. pneumoniae PCI-602, Gram -, read-out: Min. inhib. concentr. (MIC)
Method in brief: as §1

[4] = tested on: Micrococcus luteus ATCC 9341; experiment: MIC, Experiment 1; settings: ATCC9341, M. luteus ATCC 9341, Gram +, read-out: Min. inhib. concentr. (MIC)
Method in brief: as §1

[5] = tested on: Proteus mirabilis IFO 3849; experiment: MIC, Experiment 1; settings: IFO3849, P. mirabilis IFO 3849, Gram -, read-out: Min. inhib. concentr. (MIC)
Method in brief: as §1

[6] = tested on: Pseudomonas aeruginosa NCTC 10490; experiment: MIC, Experiment 1; settings: NCTC10490, P. aeruginosa NCTC 10490, Gram -, read-out: Min. inhib. concentr. (MIC)
Method in brief: as §1

[7] = tested on: Staphylococcus aureus ATCC 9144; experiment: MIC, Experiment 1; settings: ATCC9144, S. aureus ATCC 9144, Gram +, read-out: Min. inhib. concentr. (MIC)
Method in brief: (§2)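 Standard solutions of 1000 μg/ml were prepared for each compound. Inhibition was then scored under Japan Society of Chemotherapy conditions. S. pneumoniae used brain heart infusion preculture and horse-blood (5%) heart infusion agar. The remaining species used sensitivity test broth and agar.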

[8] = tested on: Staphylococcus aureus Cowan I (IID 975); experiment: MIC, Experiment 1; settings: IID975, S. aureus Cowan I (IID 975), Gram +, read-out: Min. inhib. concentr. (MIC)
Method in brief: as §2

[9] = tested on: Staphylococcus aureus FDA 209P JC-1; experiment: MIC, Experiment 1; settings: FDA209P, S. aureus FDA 209P JC-1, Gram +, read-out: Min. inhib. concentr. (MIC)
Method in brief: as §2

[10] = tested on: Staphylococcus aureus FDA 243; experiment: MIC, Experiment 1; settings: FDA243, S. aureus FDA 243, Gram +, read-out: Min. inhib. concentr. (MIC)
Method in brief: as §2

[11] = tested on: Staphylococcus aureus MS-353; experiment: MIC, Experiment 1; settings: MS353, S. aureus MS-353, Gram +, read-out: Min. inhib. concentr. (MIC)
Method in brief: as §2

[12] = tested on: Staphylococcus aureus Terajima (IID 670); experiment: MIC, Experiment 1; settings: IID670, S. aureus Terajima (IID 670), Gram +, read-out: Min. inhib. concentr. (MIC)
Method in brief: as §2

[13] = tested on: Streptococcus pneumoniae IID 552; experiment: MIC, Experiment 1; settings: IID552, S. pneumoniae IID 552, Gram +, agar with 5% defibrinated horse blood, read-out: Min. inhib. concentr. (MIC)
Method in brief: as §2

[14] = tested on: Streptococcus pneumoniae IID 554; experiment: MIC, Experiment 1; settings: IID554, S. pneumoniae IID 554, Gram +, agar with 5% defibrinated horse blood, read-out: Min. inhib. concentr. (MIC)
Method in brief: as §2

[15] = tested on: Streptococcus pyogenes Cook; experiment: MIC, Experiment 1; settings: S. pyogenes Cook, Gram +, agar with 5% defibrinated horse blood, read-out: Min. inhib. concentr. (MIC)
Method in brief: (§3)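 Minimum inhibitory concentrations come from the Japan Society of Chemotherapy procedure. For streptococci, plates were heart infusion agar with 5% defibrinated horse blood after brain heart infusion broth preculture. Non-streptococcal strains were grown in sensitivity test broth and plated on sensitivity test agar.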

[16] = tested on: Streptococcus pyogenes Su; experiment: MIC, Experiment 1; settings: S. pyogenes Su, Gram +, agar with 5% defibrinated horse blood, read-out: Min. inhib. concentr. (MIC)
Method in brief: as §3

[17] = tested on: Streptococcus pyogenes Sv; experiment: MIC, Experiment 1; settings: S. pyogenes Sv, Gram +, agar with 5% defibrinated horse blood, read-out: Min. inhib. concentr. (MIC)
Method in brief: as §3

[18] = tested on: clinically isolated Enterococcus faecalis; experiment: In vitro antibacterial activity against clinical isolates, Experiment 2
Method in brief: (§4)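 Clinical isolates collected Nov. 1988 to Jun. 1989 were precultured in sensitivity test broth. MIC was determined on sensitivity test agar. Compound standard solution was 1000 μg/ml (stock) in sterilized distilled water.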

[19] = tested on: clinically isolated Enterococcus faecium; experiment: as above; settings: for MIC90: 90% of strains, read-out: MIC90
Method in brief: as §4

[20] = tested on: clinically isolated Staphylococcus aureus; experiment: as above; settings: for MIC50: 50% of strains, read-out: MIC50
Method in brief: as §4

[21] = tested on: clinically isolated Staphylococcus epidermidis; experiment: as above; settings: Staphylococcus epidermidis, 25 clinical strains S. epidermidis; for MIC50: 50% of strains, read-out: MIC50; for MIC90: 90% of strains, read-out: MIC90
Method in brief: as §4

[22] = 25 clinical strains E. faecalis
[23] = 25 clinical strains E. faecalis, 50% of strains, read-out: MIC50
[24] = 25 clinical strains E. faecalis, 90% of strains, read-out: MIC90
[25] = 25 clinical strains S. aureus incl. 16 methicillin resistant

| Compound | MIC [1] [µg/mL] | MIC [2] [µg/mL] | MIC (Enterobacter cloacae 963) [µg/mL] | MIC [3] [µg/mL] | MIC [4] [µg/mL] | MIC [5] [µg/mL] | MIC [6] [µg/mL] | MIC [7] [µg/mL] | MIC [8] [µg/mL] | MIC [9] [µg/mL] | MIC [10] [µg/mL] | MIC [11] [µg/mL] | MIC [12] [µg/mL] | MIC [13] [µg/mL] | MIC [14] [µg/mL] | MIC [15] [µg/mL] | MIC [16] [µg/mL] | MIC [17] [µg/mL] | MIC [18, 22] [µg/mL] | MIC ([19]; 25 clinical strains E. faecium) [µg/mL] | also measured |
| --- | --- | --- | --- | --- | --- | --- | --- | --- | --- | --- | --- | --- | --- | --- | --- | --- | --- | --- | --- | --- | --- |
| CN1Cc2csc3c(C(=O)O)c(=O)c4cc(F)c(N5CCOC(CF)C5)c1c4n23 (stereo not drawn) [Compound (C), 9,1-(Methylimino)methano-7-fluoro-8-(2-fluoromethylmorpholino)-5-oxo-5H-thiazolo[3,2-a]quinoline-4-carboxylic acid] | ≤ 0.006 | ≤ 0.006 | 0.2 (≈ 0.475 µM) | ≤ 0.006 | 0.1 (≈ 0.237 µM) | 0.2 (≈ 0.475 µM) | 0.39 (≈ 0.925 µM) | 0.013 (≈ 0.0308 µM) | 0.013 (≈ 0.0308 µM) | 0.013 (≈ 0.0308 µM) | ≤ 0.006 | 0.013 (≈ 0.0308 µM) | 0.013 (≈ 0.0308 µM) | 0.025 (≈ 0.0593 µM) | 0.05 (≈ 0.119 µM) | 0.05 (≈ 0.119 µM) | 0.025 (≈ 0.0593 µM) | 0.05 (≈ 0.119 µM) | 0.05 to 3.13 (≈ 0.119 to 7.43 µM) | 0.05 to 6.25 (≈ 0.119 to 14.8 µM) | MIC50 [18, 23]: 0.1 µg/mL (≈ 0.237 µM); MIC90 [18, 24]: 3.13 µg/mL (≈ 7.43 µM); MIC50 ([19]; 25 clinical strains E. faecium, 50% of strains, read-out: MIC50): 0.78 µg/mL (≈ 1.85 µM); MIC90 ([19]; 25 clinical strains E. faecium): 3.13 µg/mL (≈ 7.43 µM); MIC [20, 25]: 0.006 to 0.2 µg/mL (≈ 0.0142 to 0.475 µM); MIC50 [20, 25]: 0.013 µg/mL (≈ 0.0308 µM); MIC90 ([20]; 25 clinical strains S. aureus incl. 16 methicillin resistant, 90% of strains, read-out: MIC90): 0.2 µg/mL (≈ 0.475 µM); MIC [21]: 0.006 to 0.39 µg/mL (≈ 0.0142 to 0.925 µM); MIC50 [21]: 0.013 µg/mL (≈ 0.0308 µM); MIC90 [21]: 0.39 µg/mL (≈ 0.925 µM) |
| CN1Cc2csc3c(C(=O)O)c(=O)c4cc(F)c(N5CCN(C)C(CO)C5)c1c4n23 (stereo not drawn) [Compound (I), 9,1-(Methylimino)methano-7-fluoro-8-(3-hydroxymethyl-4-methyl-1-piperazinyl)-5-oxo-5H-thiazolo-[3,2-a]quinoline-4-carboxylic acid hydrochloride] | 0.1 | 0.1 | 0.2 | 0.025 | 0.39 | 0.78 | 0.78 | 0.1 | 0.2 | 0.2 | 0.1 | 0.39 | 0.2 | 0.1 | 0.05 | 0.05 | 0.05 | 0.1 | 0.2 to 12.5 | 0.2 to 25 | MIC50 [18]: 0.39 µg/mL; MIC90 [18, 24]: 12.5 µg/mL; MIC50 [19]: 3.13 µg/mL; MIC90 ([19]; 25 clinical strains E. faecium): 12.5 µg/mL; MIC90 [20]: 6.25 µg/mL; MIC [20, 25]: 0.1 to 12.5 µg/mL; MIC50 [20, 25]: 0.2 µg/mL; MIC [21]: 0.05 to 3.13 µg/mL; MIC50 [21]: 0.1 µg/mL; MIC90 [21]: 3.13 µg/mL |
| COC[C@H]1CN(c2c(F)cc3c(=O)c(C(=O)O)c4scc5n4c3c2N(C)C5)CCO1 [Compound (P), 9,1-(Methylimino)methano-7-fluoro-8-[(2R)-2-methoxymethylmorpholino)-5-oxo-5H-thiazolo[3,2-a]quinoline-4-carboxylic acid] | 0.013 (≈ 0.03 µM) | ≤ 0.006 | 1.56 (≈ 3.6 µM) | 0.025 (≈ 0.0577 µM) | 0.2 (≈ 0.461 µM) | 0.78 (≈ 1.8 µM) | 1.56 (≈ 3.6 µM) | 0.013 (≈ 0.03 µM) | 0.006 (≈ 0.0138 µM) | 0.05 (≈ 0.115 µM) | ≤ 0.006 | 0.025 (≈ 0.0577 µM) | 0.05 (≈ 0.115 µM) | 0.05 (≈ 0.115 µM) | 0.1 (≈ 0.231 µM) | 0.05 (≈ 0.115 µM) | 0.05 (≈ 0.115 µM) | 0.1 (≈ 0.231 µM) | 0.1 to 6.25 (≈ 0.231 to 14.4 µM) | 0.2 to 12.5 (≈ 0.461 to 28.8 µM) | MIC90 [18]: 6.25 µg/mL (≈ 14.4 µM); MIC50 [18, 23]: 0.2 µg/mL (≈ 0.461 µM); MIC50 [19]: 3.13 µg/mL (≈ 7.22 µM); MIC90 ([19]; 25 clinical strains E. faecium): 12.5 µg/mL (≈ 28.8 µM); MIC90 [20]: 0.78 µg/mL (≈ 1.8 µM); MIC [20, 25]: 0.006 to 0.78 µg/mL (≈ 0.0138 to 1.8 µM); MIC50 [20, 25]: 0.013 µg/mL (≈ 0.03 µM); MIC [21]: 0.006 to 0.78 µg/mL (≈ 0.0138 to 1.8 µM); MIC50 [21]: 0.05 µg/mL (≈ 0.115 µM); MIC90 [21]: 0.39 µg/mL (≈ 0.9 µM) |
